# Source: US9914736B2, “TrKA kinase inhibitors, compositions and methods thereof” (Merck Sharp & Dohme Corp., priority 2014, dated 2018)
# Target: human TrkA receptor (Homo sapiens (Human), UniProt P04629)
# Test: DiscoverX PathHunter TrkA functional assay
# Type: cell-based
# Details: U2OS cells expressing human TrkA-ProLink, Shc1-EA and p75NTR; compound 1 h, then NGF at ~80% of maximal response for 3 h; luminescence
# Chain of human TrkA receptor (P04629 33-796): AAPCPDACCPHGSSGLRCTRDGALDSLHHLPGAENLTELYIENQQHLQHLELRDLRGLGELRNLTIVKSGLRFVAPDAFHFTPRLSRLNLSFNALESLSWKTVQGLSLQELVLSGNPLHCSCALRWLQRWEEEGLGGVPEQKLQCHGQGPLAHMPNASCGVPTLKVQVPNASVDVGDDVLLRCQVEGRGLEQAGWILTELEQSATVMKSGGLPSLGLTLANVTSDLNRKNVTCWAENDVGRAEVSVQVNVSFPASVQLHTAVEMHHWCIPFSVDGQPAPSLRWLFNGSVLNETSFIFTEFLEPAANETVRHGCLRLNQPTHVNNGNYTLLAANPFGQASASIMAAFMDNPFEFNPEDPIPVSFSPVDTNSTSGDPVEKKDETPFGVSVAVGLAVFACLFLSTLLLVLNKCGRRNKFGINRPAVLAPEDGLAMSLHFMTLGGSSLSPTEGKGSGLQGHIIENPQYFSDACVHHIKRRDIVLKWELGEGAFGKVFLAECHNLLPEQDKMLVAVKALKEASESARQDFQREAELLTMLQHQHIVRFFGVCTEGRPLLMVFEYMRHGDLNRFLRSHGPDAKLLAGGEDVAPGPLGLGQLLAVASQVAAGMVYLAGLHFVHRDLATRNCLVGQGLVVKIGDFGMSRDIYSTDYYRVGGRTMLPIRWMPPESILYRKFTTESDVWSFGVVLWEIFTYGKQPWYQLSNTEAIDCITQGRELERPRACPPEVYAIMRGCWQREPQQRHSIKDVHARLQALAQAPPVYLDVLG
row,Structure (SMILES),IC50 [nM]
1,"Cn1ccc(-c2cc(C(=O)Nc3oncc3-c3ccccc3)ccc2C(F)(F)F)n1 [Compound 17, 3-(1-methyl-1H-pyrazol-3-yl)-N-(4-phenylisoxazol-5-yl)-4-(trifluoromethyl)benzamide]",170
2,"Cc1cc(-n2nc(CN3CCCC3)cc2NC(=O)c2ccc(C(F)(F)F)c(-c3ccn(C)n3)c2)[nH]n1 [Compound 69, 3-(1-methyl-1H-pyrazol-3-yl)-N-[5′-methyl-3-(pyrrolidin-1-ylmethyl)-2′H-1,3′-bipyrazol-5-yl]-4-(trifluoromethyl)benzamide]",240
3,Cc1cc(-n2nc(CO)cc2NC(=O)c2ccc(C(F)(F)F)c(-c3ccn(C)n3)c2)[nH]n1 [Compound 51],2.9
4,"Cc1nc(-c2ccccc2)c(NC(=O)c2ccc(C(F)(F)F)c(-c3ccn(C)n3)c2)s1 [Compound 32, N-(2-methyl-4-phenyl-1,3-thiazol-5-yl)-3-(1-methyl-1H-pyrazol-3-yl)-4-(trifluoromethyl)benzamide]",6
5,"Cc1cc(-n2nc(CC(=O)Nc3ccccn3)cc2NC(=O)c2ccc(C(F)(F)F)c(-c3ccn(C)n3)c2)[nH]n1 [Compound 22, N-{5′-methyl-3-[2-oxo-2-(pyridin-2-ylamino)ethyl]-2′H-1,3′-bipyrazol-5-yl}-3-(1-methyl-1H-pyrazol-3-yl)-4-(trifluoromethyl)benzamide]",5.6
6,"CC(O)c1cnc(-c2cc(NC(=O)c3cc(-c4ccn(C)n4)c(C(F)(F)F)cc3F)n(-c3ccc(F)cc3)n2)nc1 (single isomer, unassigned) [Compound 107, (S or R)-2-fluoro-N-(1-(4-fluorophenyl)-3-(5-(1-hydroxyethyl)pyrimidin-2-yl)-1H-pyrazol-5-yl)-5-(1-methyl-1H-pyrazol-3-yl)-4-(trifluoromethyl)benzamide]",1
7,"Cn1ccc(-c2cc(C(=O)Nc3c(-c4ccccc4)nc(C(N)=O)n3C)ccc2C(F)(F)F)n1 [Compound 50, 1-methyl-5-({[3-(1-methyl-1H-pyrazol-3-yl)-4-(trifluoromethyl)phenyl]carbonyl}amino)-4-phenyl-1H-imidazole-2-carboxamide]",5.7
8,"Cn1ccc(-c2cc(C(=O)Nc3cc(Cn4ncnn4)nn3-c3ccccc3)ccc2C(F)(F)F)n1 [Compound 67, 3-(1-methyl-1H-pyrazol-3-yl)-N-[1-phenyl-3-(2H-tetrazol-2-ylmethyl)-1H-pyrazol-5-yl]-4-(trifluoromethyl)benzamide]",3.7
9,"Cn1ccc(-c2cc(C(=O)Nc3cc(-c4n[nH]c(=O)n4C)nn3-c3ccccc3)ccc2C(F)(F)F)n1 [Compound 16, N-[3-(4-methyl-5-oxo-4,5-dihydro-1H-1,2,4-triazol-3-yl)-1-phenyl-1H-pyrazol-5-yl]-3-(1-methyl-1H-pyrazol-3-yl)-4-(trifluoromethyl)benzamide]",46
10,"Cn1ccc(-c2cc(C(=O)Nc3cc(Cc4nnc(N)o4)nn3-c3ccc(F)cc3)ccc2C(F)(F)F)n1 [Compound 92, N-(3-((5-amino-1,3,4-oxadiazol-2-yl)methyl)-1-(4-fluorophenyl)-1H-pyrazol-5-yl)-3-(1-methyl-1H-pyrazol-3-yl)-4-(trifluoromethyl)benzamide]",1.3
11,"Cn1ccc(-c2cc(C(=O)Nc3cnoc3-c3ccccc3)ccc2C(F)(F)F)n1 [Compound 37, 3-(1-methyl-1H-pyrazol-3-yl)-N-(5-phenylisoxazol-4-yl)-4-(trifluoromethyl)benzamide]",180
12,"Cn1ccc(-c2cc(C(=O)Nc3snnc3-c3ccccc3)ccc2C(F)(F)F)n1 [Compound 19, 3-(1-methyl-1H-pyrazol-3-yl)-N-(4-phenyl-1,2,3-thiadiazol-5-yl)-4-(trifluoromethyl)benzamide]",2800
13,"Cn1ccc(-c2cc(C(=O)Nc3cc(CN4C(=O)CNC4=O)nn3-c3ccc(F)cc3)c(F)cc2C(F)(F)F)n1 [Compound 112, N-(3-((2,5-dioxoimidazolidin-1-yl)methyl)-1-(4-fluorophenyl)-1H-pyrazol-5-yl)-2-fluoro-5-(1-methyl-1H-pyrazol-3-yl)-4-(trifluoromethyl)benzamide]",1.9
14,"Cc1cc(-n2nc(C(=O)NCc3cccnc3)cc2NC(=O)c2cc(-c3ccn(C)n3)c(C(F)(F)F)cc2F)[nH]n1 [Compound 76, 5-({[2-fluoro-5-(1-methyl-1H-pyrazol-3-yl)-4-(trifluoromethyl)phenyl]carbonyl}amino)-5′-methyl-N-(pyridin-3-ylmethyl)-2′H-1,3′-bipyrazole-3-carboxamide]",0.39
15,"Cc1nc(NC(=O)c2ccc(C(F)(F)F)c(-c3ccn(C)n3)c2)n(-c2ccccc2)n1 [Compound 15, N-(3-methyl-1-phenyl-1H-1,2,4-triazol-5-yl)-3-(1-methyl-1H-pyrazol-3-yl)-4-(trifluoromethyl)benzamide]",150
16,"Cc1cc(NC(=O)c2cc(-c3cc[nH]n3)ccc2Cl)n(-c2cc(C)[nH]n2)n1 [Compound 54, 2-chloro-N-(3,5′-dimethyl-1′H-1,3′-bipyrazol-5-yl)-5-(1H-pyrazol-3-yl)benzamide]",490

row,Structure (SMILES),IC50 [nM]
1,"Cn1ccc(-c2cc(C(=O)Nc3cc(Cc4nnnn4C)nn3-c3ccccc3)c(Cl)cc2C(F)(F)F)n1 [Compound 80, 2-chloro-5-(1-methyl-1H-pyrazol-3-yl)-N-(3-((1-methyl-1H-tetrazol-5-yl)methyl)-1-phenyl-1H-pyrazol-5-yl)-4-(trifluoromethyl)benzamide]",0.78
2,"Cn1ccc(-c2cc(C(=O)Nc3cc(Cc4ccc[nH]c4=O)nn3-c3ccc(F)cc3)ccc2C(F)(F)F)n1 [Compound 98, N-(1-(4-fluorophenyl)-3-((2-oxo-1,2-dihydropyridin-3-yl)methyl)-1H-pyrazol-5-yl)-3-(1-methyl-1H-pyrazol-3-yl)-4-(trifluoromethyl)benzamide]",3.8
3,"O=C(Nc1cc(-c2ccncc2)nn1-c1ccccc1)c1ccc(C(F)(F)F)c(-n2cccn2)c1 [Compound 24, N-(1-phenyl-3-pyridin-4-yl-1H-pyrazol-5-yl)-3-(1H-pyrazol-1-yl)-4-(trifluoromethyl)benzamide]",21
4,"Cn1ccc(-c2cc(C(=O)Nc3cn[nH]c3-c3ccccc3)ccc2C(F)(F)F)n1 [Compound 18, 3-(1-methyl-1H-pyrazol-3-yl)-N-(5-phenyl-1H-pyrazol-4-yl)-4-(trifluoromethyl)benzamide]",18
5,"CC(O)c1cc(NC(=O)c2cc(-c3ncccn3)c(C(F)(F)F)cc2F)n(-c2ccc(F)cc2)n1 (single isomer, unassigned) [Compound 99, (S or R)-2-fluoro-N-(1-(4-fluorophenyl)-3-(1-hydroxyethyl)-1H-pyrazol-5-yl)-5-(pyrimidin-2-yl)-4-(trifluoromethyl)benzamide]",16
6,"Cc1cc(-n2nc(C(=O)NCc3ccns3)cc2NC(=O)c2ccc(C(F)(F)F)c(-c3ccn(C)n3)c2)[nH]n1 [Compound 25, N-(isothiazol-5-ylmethyl)-5′-methyl-5-({[3-(1-methyl-1H-pyrazol-3-yl)-4-(trifluoromethyl)phenyl]carbonyl}amino)-2′H-1,3′-bipyrazole-3-carboxamide]",1.7
7,"NC(=O)c1ccnc(-c2cc(NC(=O)c3cc(-c4ncccn4)c(C(F)(F)F)cc3F)n(-c3ccc(F)cc3)n2)n1 [Compound 84, 2-(5-(2-fluoro-5-(pyrimidin-2-yl)-4-(trifluoromethyl)benzamido)-1-(4-fluorophenyl)-1H-pyrazol-3-yl)pyrimidine-4-carboxamide]",4.9
8,"O=C(Nc1sc(-c2cnn(CCO)c2)nc1-c1ccccc1)c1cc(-c2ncccn2)c(C(F)(F)F)cc1F [Compound 106, 2-fluoro-N-(2-(1-(2-hydroxyethyl)-1H-pyrazol-4-yl)-4-phenylthiazol-5-yl)-5-(pyrimidin-2-yl)-4-(trifluoromethyl)benzamide]",6.7
9,"Cc1cc(-c2nn(C)cc2NC(=O)c2ccc(C(F)(F)F)c(-c3ccn(C)n3)c2)[nH]n1 [Compound 74, N-(1,5′-dimethyl-1H,2′H-3,3′-bipyrazol-4-yl)-3-(1-methyl-1H-pyrazol-3-yl)-4-(trifluoromethyl)benzamide]",180
10,"Cn1ccc(-c2cc(C(=O)Nc3cc(-c4ncccn4)nn3-c3ccc(F)cc3)ccc2C(F)(F)F)n1 [Compound 60, N-[1-(4-fluorophenyl)-3-pyrimidin-2-yl-1H-pyrazol-5-yl]-3-(1-methyl-1H-pyrazol-3-yl)-4-(trifluoromethyl)benzamide]",3
11,"NCc1cccc(-c2cc(NC(=O)c3cc(-c4ncccn4)c(C(F)(F)F)cc3F)n(-c3ccc(F)cc3)n2)c1 [Compound 103, N-(3-(3-(aminomethyl)phenyl)-1-(4-fluorophenyl)-1H-pyrazol-5-yl)-2-fluoro-5-(pyrimidin-2-yl)-4-(trifluoromethyl)benzamide]",2.4
12,"Cc1nc(-c2ccccc2)c(NC(=O)c2ccc(C(F)(F)F)c(-c3ccn(C)n3)c2)[nH]1 [Compound 13, N-(2-methyl-4-phenyl-1H-imidazol-5-yl)-3-(1-methyl-1H-pyrazol-3-yl)-4-(trifluoromethyl)benzamide]",38
13,"Cn1ccc(-c2cc(C(=O)Nc3cc(-c4ccncc4)nn3-c3ccccc3)c(Cl)cc2C(F)(F)F)n1 [Compound 36, 2-chloro-5-(1-methyl-1H-pyrazol-3-yl)-N-(1-phenyl-3-pyridin-4-yl-1H-pyrazol-5-yl)-4-(trifluoromethyl)benzamide]",0.37
14,"Cc1coc(-c2cc(C(=O)Nc3cc(-c4cn[nH]c4)nn3-c3cc(C)[nH]n3)ccc2C(F)(F)F)n1 [Compound 61, 3-(4-methyl-1,3-oxazol-2-yl)-N-(5-methyl-1H,1″H-3,1′:3′,4″-terpyrazol-5′-yl)-4-(trifluoromethyl)benzamide]",3.1
15,"Cc1csc(-c2cc(C(=O)Nc3cc(C)nn3-c3ccccc3)ccc2C(F)(F)F)n1 [Compound 3, N-(3-methyl-1-phenyl-1H-pyrazol-5-yl)-3-(4-methyl-1,3-thiazol-2-yl)-4-(trifluoromethyl)benzamide]",5.4
16,"Cn1ccc(-c2cc(C(=O)Nc3cc(Cc4nnnn4C)nn3-c3ccc(F)cc3)c(F)cc2C(F)(F)F)n1 [Compound 102, 2-fluoro-N-(1-(4-fluorophenyl)-3-((1-methyl-1H-tetrazol-5-yl)methyl)-1H-pyrazol-5-yl)-5-(1-methyl-1H-pyrazol-3-yl)-4-(trifluoromethyl)benzamide]",0.4
